# Assay results reported in patent publication US20130237533A1, “CDK Inhibitors” (G1 THERAPEUTICS, INC., priority 2010, published 2013).
# Target: CDK2/cyclinE (Homo sapiens, UniProt P24941)
# Assay: Caliper LabChip kinase enzymatic assay, CDK2/cyclinE
# Type: biochemical
# Conditions: Table 2, class symbols; read-out: CDK2/CycE IC50
# Procedure: Kinase enzymatic reactions were performed in 384-well microplates using a 12-channel Caliper LabChip instrument as a detection device. […] As substrate and product are separated, two peaks of fluorescence are observed. Change in the relative fluorescence intensity of the substrate and product peaks is the parameter measured, reflecting enzyme activity. In the presence of an inhibitor, the ratio between product and substrate is altered. The signal of the product decreases, while the signal of the substrate increases.
# Potential inhibitor compounds (as HCl salts) were tested using 12-point dose response curves in single point at the Km, for ATP. The IC50 of each compound was determined using GraphPad Prism.
row,IC50,SMILES
1,> 100 µM,O=C1NCCn2c1cc1cnc(Nc3ccc(N4CCNCC4)cn3)nc12 [Compound 3]
2,1 to 100 µM,CC(C)C1CNC(=O)c2cc3cnc(Nc4ccc(N5CCNCC5)cn4)nc3n21 (centres unmarked) [Compound 8]
3,1 to 100 µM,CC(C)[C@@H]1CNC(=O)c2cc3cnc(Nc4ccc(N5CCNCC5)cn4)nc3n21 [Compound 9]
4,1 to 100 µM,CC(C)[C@H]1CNC(=O)c2cc3cnc(Nc4ccc(N5CCNCC5)cn4)nc3n21 [Compound 10]
5,1 to 100 µM,CC(C)C[C@H]1CNC(=O)c2cc3cnc(Nc4ccc(N5CCN(C)CC5)cn4)nc3n21 [Compound 12]
6,1 to 100 µM,CC(C)C[C@H]1CNC(=O)c2cc3cnc(Nc4ccc(N5CCNCC5)cn4)nc3n21 [Compound 13]
7,1 to 100 µM,CCC(C)[C@H]1CNC(=O)c2cc3cnc(Nc4ccc(N5CCN(C)CC5)cn4)nc3n21 (some centres unmarked) [Compound 16]
8,1 to 100 µM,CCC(C)[C@H]1CNC(=O)c2cc3cnc(Nc4ccc(N5CCNCC5)cn4)nc3n21 (some centres unmarked) [Compound 17]
9,0.1 to 1 µM,CC(C)(C)[C@H]1CNC(=O)c2cc3cnc(Nc4ccc(N5CCNCC5)cn4)nc3n21 [Compound 20]
10,1 to 100 µM,CN1C[C@H](C(C)(C)C)n2c(cc3cnc(Nc4ccc(N5CCNCC5)cn4)nc32)C1=O [Compound 21]
11,1 to 100 µM,CN1CCN(c2ccc(Nc3ncc4cc5n(c4n3)[C@@H](c3ccccc3)CNC5=O)nc2)CC1 [Compound 22]
12,0.1 to 1 µM,O=C1NC[C@H](c2ccccc2)n2c1cc1cnc(Nc3ccc(N4CCNCC4)cn3)nc12 [Compound 23]
13,1 to 100 µM,CC(C)[C@H]1Cn2c(cc3cnc(Nc4ccc(N5CCNCC5)cn4)nc32)C(=O)N1 [Compound 24]
14,1 to 100 µM,CC(C)[C@@H]1Cn2c(cc3cnc(Nc4ccc(N5CCNCC5)cn4)nc32)C(=O)N1 [Compound 25]
15,1 to 100 µM,CC1(C)CNC(=O)c2cc3cnc(Nc4ccc(N5CCNCC5)cn4)nc3n21 [Compound 26]
16,1 to 100 µM,CN1CCN(c2ccc(Nc3ncc4cc5n(c4n3)C3(CCCC3)CNC5=O)nc2)CC1 [Compound 29]
17,1 to 100 µM,O=C1NCC2(CCCC2)n2c1cc1cnc(Nc3ccc(N4CCNCC4)cn3)nc12 [Compound 30]
18,1 to 100 µM,O=C1NCC2(CCCC2)n2c1cc1cnc(Nc3ccc(N4CCOCC4)cn3)nc12 [Compound 32]
19,1 to 100 µM,O=C1NCC2(CCCC2)n2c1cc1cnc(Nc3ccc(N4CCOCC4)nn3)nc12 [Compound 33]
20,0.01 to 0.1 µM,O=C1NCC2(CCCC2)n2c1cc1cnc(Nc3ccc(N4CCOCC4)cc3)nc12 [Compound 34]
21,1 to 100 µM,CC(C)N1CCN(c2ccc(Nc3ncc4cc5n(c4n3)C3(CCCC3)CNC5=O)nc2)CC1 [Compound 35]
22,1 to 100 µM,CC(C)CN1CCN(c2ccc(Nc3ncc4cc5n(c4n3)C3(CCCC3)CNC5=O)nc2)CC1 [Compound 36]
23,1 to 100 µM,CC1CN(c2ccc(Nc3ncc4cc5n(c4n3)C3(CCCC3)CNC5=O)nc2)CC(C)O1 (centres unmarked) [Compound 37]
24,1 to 100 µM,O=C1NCC2(CCCC2)n2c1cc1cnc(Nc3ccc(N4CCCCC4)cn3)nc12 [Compound 38]
25,1 to 100 µM,O=C1NCC2(CCCC2)n2c1cc1cnc(Nc3ccc(N4CCC(N5CCOCC5)CC4)cn3)nc12 [Compound 39]
26,1 to 100 µM,O=C1NCC2(CCCC2)n2c1cc1cnc(Nc3ccc(N4CCC(N5CCCCC5)CC4)cn3)nc12 [Compound 40]
27,1 to 100 µM,O=C1NCC2(CCCC2)n2c1cc1cnc(Nc3ccc(N4CCSCC4)cn3)nc12 [Compound 41]
28,1 to 100 µM,CC(C)CC1CNC(=O)c2cc3cnc(Nc4ccc(N5CCNCC5)cn4)nc3n21 (centres unmarked) [Compound 46]

# Same assay, conditions: enzyme 0.22 nM, (at the Km for ATP), one hour; 12-point dose response; compounds as HCl salts; read-out: CDK2/cyclinE IC50
row,IC50,SMILES
1,> 100 µM,O=C1NCCn2c1cc1cnc(Nc3ccc(N4CCNCC4)cn3)nc12 [Compound 3]
